Measured values from ChEMBL document CHEMBL1151687, “Search for alpha-helical propensity in the receptor-bound conformation of glucagon-like peptide-1” (Bioorg Med Chem, 2008).
Positions of bridges follow the written chain, without caps; N, C: chain ends. Residues, ends and D or L forms follow the SMILES beside them.

Key:
[1] = target: T1, Glucagon-like peptide 1 receptor (Homo sapiens, UniProt P43220); assay: Displacement of [125I]exendin(9-39) from human GLP1R expressed in HEK293 cells; assay type: cell-based
[2] = target: T1, Glucagon-like peptide 1 receptor; assay: Activation of human GLP1R expressed in HEK293 cells assessed as effect on cAMP responsive element promoter driven luciferase expression; assay type: functional, cell-based

T1 sequence (P43220 whole entry): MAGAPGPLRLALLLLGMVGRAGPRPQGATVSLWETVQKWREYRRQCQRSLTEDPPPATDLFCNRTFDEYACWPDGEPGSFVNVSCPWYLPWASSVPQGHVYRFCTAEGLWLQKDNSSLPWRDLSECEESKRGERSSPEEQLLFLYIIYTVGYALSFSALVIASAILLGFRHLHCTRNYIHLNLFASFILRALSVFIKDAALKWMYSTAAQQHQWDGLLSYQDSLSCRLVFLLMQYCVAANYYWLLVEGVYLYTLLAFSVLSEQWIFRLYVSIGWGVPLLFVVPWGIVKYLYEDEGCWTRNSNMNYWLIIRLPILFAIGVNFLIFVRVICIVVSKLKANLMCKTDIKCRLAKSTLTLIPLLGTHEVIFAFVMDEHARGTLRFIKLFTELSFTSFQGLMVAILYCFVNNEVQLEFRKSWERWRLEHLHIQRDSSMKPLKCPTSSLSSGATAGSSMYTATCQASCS

Structure (SMILES)	IC50 [1] [nM]	EC50 [2] [nM]	IC50 ([1]; hek293) [nM]	EC50 ([2]; hek293) [nM]
CC[C@H](C)[C@H](NC(=O)[C@H](CCC(=O)O)NC(=O)[C@H](CCCCN)NC(=O)[C@H](CCC(N)=O)NC(=O)[C@H](C)NC(=O)[C@H](CCC(N)=O)NC(=O)CNC(=O)[C@H](CCCCNC(C)=O)NC(=O)[C@H](CC(C)C)NC(=O)[C@H](Cc1ccc(O)cc1)NC(=O)[C@H](CO)NC(=O)[C@H](CO)NC(=O)[C@@H](NC(=O)[C@H](CC(=O)O)NC(=O)[C@H](CO)NC(=O)[C@@H](NC(=O)[C@H](Cc1ccccc1)NC(=O)[C@@H](NC(=O)CNC(=O)[C@H](CCC(=O)O)NC(=O)[C@H](C)NC(=O)[C@@H](N)Cc1cnc[nH]1)[C@@H](C)O)[C@@H](C)O)C(C)C)C(=O)N[C@@H](Cc1ccccc1)C(=O)N[C@@H](C)C(=O)N[C@@H](Cc1c[nH]c2ccccc12)C(=O)N[C@@H](CC(C)C)C(=O)N[C@H](C(=O)N[C@@H](CCCCN)C(=O)NCC(=O)N[C@@H](CCCNC(=N)N)C(N)=O)C(C)C (H-HAEGTFTSDVSSYLK(Ac)GQAQKEIFAWLVKGR-NH2)	1600	0.12	–	–
CC[C@H](C)[C@H](NC(=O)[C@H](Cc1ccccc1)NC(=O)[C@H](CCC(=O)O)NC(=O)[C@H](CCCCN)NC(=O)[C@H](C)NC(=O)[C@@H]1CCC(=O)NCCCC[C@H](NC(=O)[C@H](Cc2ccc(O)cc2)NC(=O)[C@H](CO)NC(=O)[C@H](CO)NC(=O)[C@@H](NC(=O)[C@H](CC(=O)O)NC(=O)[C@H](CO)NC(=O)[C@@H](NC(=O)[C@H](Cc2ccccc2)NC(=O)[C@@H](NC(=O)CNC(=O)[C@H](CCC(=O)O)NC(=O)[C@H](C)NC(=O)[C@@H](N)Cc2cnc[nH]2)[C@@H](C)O)[C@@H](C)O)C(C)C)C(=O)N[C@@H](CCC(=O)O)C(=O)NCC(=O)N[C@@H](CCC(N)=O)C(=O)N1)C(=O)N[C@@H](C)C(=O)N[C@@H](Cc1c[nH]c2ccccc12)C(=O)N[C@@H](CC(C)C)C(=O)N[C@H](C(=O)N[C@@H](CCCCN)C(=O)NCC(=O)N[C@@H](CCCNC(=N)N)C(N)=O)C(C)C (H-HAEGTFTSDVSSYKEGQEAKEFIAWLVKGR-NH2; lactam 14-18)	–	–	3000	0.36
CC[C@H](C)[C@H](NC(=O)[C@H](CCC(=O)O)NC(=O)[C@H](CCCCN)NC(=O)[C@H](C)NC(=O)[C@H](C)NC(=O)[C@H](CCC(N)=O)NC(=O)CNC(=O)[C@H](CCC(=O)O)NC(=O)[C@H](CS)NC(=O)[C@H](Cc1ccc(O)cc1)NC(=O)[C@H](CO)NC(=O)[C@H](CO)NC(=O)[C@H](CS)NC(=O)[C@H](CC(=O)O)NC(=O)[C@H](CO)NC(=O)[C@@H](NC(=O)[C@H](Cc1ccccc1)NC(=O)[C@@H](NC(=O)CNC(=O)[C@H](CCC(=O)O)NC(=O)[C@H](C)NC(=O)[C@@H](N)Cc1cnc[nH]1)[C@@H](C)O)[C@@H](C)O)C(=O)N[C@@H](Cc1ccccc1)C(=O)N[C@@H](C)C(=O)N[C@@H](Cc1c[nH]c2ccccc12)C(=O)N[C@@H](CC(C)C)C(=O)N[C@H](C(=O)N[C@@H](CCCCN)C(=O)NCC(=O)N[C@@H](CCCNC(=N)N)C(N)=O)C(C)C (H-HAEGTFTSDCSSYCEGQAAKEIFAWLVKGR-NH2)	–	1.4	–	–
CC[C@H](C)[C@H](NC(=O)[C@H](Cc1ccccc1)NC(=O)[C@H](CCC(=O)O)NC(=O)[C@H](CCCCN)NC(=O)[C@H](C)NC(=O)[C@H](C)NC(=O)[C@H](CCC(N)=O)NC(=O)CNC(=O)[C@H](CCC(=O)O)NC(=O)[C@@H]1CSSC[C@H](NC(=O)[C@H](CC(=O)O)NC(=O)[C@H](CO)NC(=O)[C@@H](NC(=O)[C@H](Cc2ccccc2)NC(=O)[C@@H](NC(=O)CNC(=O)[C@H](CCC(=O)O)NC(=O)[C@H](C)NC(=O)[C@@H](N)Cc2cnc[nH]2)[C@@H](C)O)[C@@H](C)O)C(=O)N[C@@H](CO)C(=O)N[C@@H](CO)C(=O)N[C@@H](Cc2ccc(O)cc2)C(=O)N1)C(=O)N[C@@H](C)C(=O)N[C@@H](Cc1c[nH]c2ccccc12)C(=O)N[C@@H](CC(C)C)C(=O)N[C@H](C(=O)N[C@@H](CCCCN)C(=O)NCC(=O)N[C@@H](CCCNC(=N)N)C(N)=O)C(C)C (H-HAEGTFTSDCSSYCEGQAAKEFIAWLVKGR-NH2; disulfide 10-14)	–	–	–	19

Other lines, results leading:

IC50 [1] [nM]	EC50 [2] [nM]	IC50 ([1]; hek293) [nM]	EC50 ([2]; hek293) [nM]	Structure (SMILES)
17	0.0038	–	–	CC[C@H](C)[C@H](NC(=O)[C@H](CCC(=O)O)NC(=O)[C@H](CCCCN)NC(=O)[C@H](C)NC(=O)[C@H](C)NC(=O)[C@H](CCC(N)=O)NC(=O)[C@H](CCC(N)=O)NC(=O)[C@H](CCC(=O)O)NC(=O)[C@H](CC(C)C)NC(=O)[C@H](Cc1ccc(O)cc1)NC(=O)[C@H](CCCCNC(C)=O)NC(=O)[C@H](CO)NC(=O)[C@@H](NC(=O)[C@H](CC(=O)O)NC(=O)[C@H](CO)NC(=O)[C@@H](NC(=O)[C@H](Cc1ccccc1)NC(=O)[C@@H](NC(=O)CNC(=O)[C@H](CCC(=O)O)NC(=O)[C@H](C)NC(=O)[C@@H](N)Cc1cnc[nH]1)[C@@H](C)O)[C@@H](C)O)C(C)C)C(=O)N[C@@H](Cc1ccccc1)C(=O)N[C@@H](C)C(=O)N[C@@H](Cc1c[nH]c2ccccc12)C(=O)N[C@@H](CC(C)C)C(=O)N[C@H](C(=O)N[C@@H](CCCCN)C(=O)NCC(=O)N[C@@H](CCCNC(=N)N)C(N)=O)C(C)C (H-HAEGTFTSDVSK(Ac)YLEQQAAKEIFAWLVKGR-NH2)
–	–	–	0.0048	CC[C@H](C)[C@H](NC(=O)[C@H](CCC(=O)O)NC(=O)[C@H](CCCCN)NC(=O)[C@H](C)NC(=O)[C@H](C)NC(=O)[C@H](CCC(N)=O)NC(=O)CNC(=O)[C@H](CCC(=O)O)NC(=O)[C@H](CC(C)C)NC(=O)[C@H](Cc1ccc(O)cc1)NC(=O)[C@H](CO)NC(=O)[C@H](CO)NC(=O)[C@@H](NC(=O)[C@H](CC(=O)O)NC(=O)[C@H](CO)NC(=O)[C@@H](NC(=O)[C@H](Cc1ccccc1)NC(=O)[C@@H](NC(=O)CNC(=O)[C@H](CCC(=O)O)NC(=O)[C@H](C)NC(=O)[C@@H](N)Cc1cnc[nH]1)[C@@H](C)O)[C@@H](C)O)C(C)C)C(=O)N[C@@H](Cc1ccccc1)C(=O)N[C@@H](CCCCNC(C)=O)C(=O)N[C@@H](Cc1c[nH]c2ccccc12)C(=O)N[C@@H](CC(C)C)C(=O)N[C@H](C(=O)N[C@@H](CCC(N)=O)C(=O)NCC(=O)N[C@@H](CCCN=C(N)N)C(N)=O)C(C)C (H-HAEGTFTSDVSSYLEGQAAKEIFK(Ac)WLVQGR-NH2)
–	0.0033	–	–	CC[C@H](C)[C@H](NC(=O)[C@H](Cc1ccccc1)NC(=O)[C@H](CCC(=O)O)NC(=O)[C@H](CCCCN)NC(=O)[C@H](C)NC(=O)[C@H](C)NC(=O)[C@H](CCC(N)=O)NC(=O)CNC(=O)[C@H](CCC(=O)O)NC(=O)[C@@H]1CCC(=O)NCCCC[C@H](NC(=O)[C@H](CC(=O)O)NC(=O)[C@H](CO)NC(=O)[C@@H](NC(=O)[C@H](Cc2ccccc2)NC(=O)[C@@H](NC(=O)CNC(=O)[C@H](CCC(=O)O)NC(=O)[C@H](C)NC(=O)[C@@H](N)Cc2cnc[nH]2)[C@@H](C)O)[C@@H](C)O)C(=O)N[C@@H](CO)C(=O)N[C@@H](CO)C(=O)N[C@@H](Cc2ccc(O)cc2)C(=O)N1)C(=O)N[C@H]1CCCCNC(=O)CC[C@@H](C(=O)NCC(=O)N[C@@H](CCCNC(=N)N)C(N)=O)NC(=O)[C@H](C(C)C)NC(=O)[C@H](CC(C)C)NC(=O)[C@H](Cc2c[nH]c3ccccc23)NC1=O (H-HAEGTFTSDKSSYEEGQAAKEFIKWLVEGR-NH2; lactam 10-14, 24-28)
